Results on 11 compounds are retold here after ChEMBL document CHEMBL1201862, “PubChem BioAssay data set” (2004).

Structures are written as SMILES. “And” between values parts separate entries of the source, which are not always exact repeats. Equal entries are not always repeated.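 Each compound was tested at five concentrations against cells in 96-well plates for 48 hours. GI50 is the concentration that inhibits growth by half.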 The source made the active and inactive calls. Cut-off read from the data, not from the text of the source: active = GI50 up to about 1.1 µM and inactive = higher.

Common to all, as to assay: NCI anticancer screen, dose series, 48 h
Assay [1] relates to PC-3.
Assay [2] deals with SF-268.
Assay [3] has as its system Malme-3M.
In assay [4] the test system is MCF7.
Assay [5] relates to NCI-H226.
Assay [6] has as its system U-251.
Assay [7] relates to EKVX.
The test system of assay [8] is NCI-H23.
For assay [9], the system named is MDA-N.
Assay [10] has as its system OVCAR-8.
Assay [11] relates to 786-0.
The subject of assay [12] is BT-549.
The subject of assay [13] is M14.
Assay [14] has as its system MDA-MB-231.
Assay [15] concerns UACC-62.
Assay [16] concerns HCT-116.
The test system of assay [17] is SW-620.
In assay [18] the test system is SR.
The test system of assay [19] is HOP-92.

In the case of `Cc1cccc(N/C(Sc2ccccc2)=C(/C(Cl)=C(Cl)Cl)[N+](=O)[O-])c1`, the GI50 in assay [1] is 27 µM (inactive); in assay [2], 17.8 µM (inactive); in [3], 16.5 µM (inactive); in [4], 29.3 µM (inactive); in assay [5], 16.6 µM (inactive); in assay [6] it was 15.4 µM (inactive). The GI50 is 16.9 µM (inactive) in assay [7]; 20.1 µM (inactive) in [8]; 19.4 µM (inactive) in [9]; 16.1 µM (inactive) in assay [10]; 16.9 µM (inactive) in assay [11]; 20.4 µM (inactive) in assay [12]. The GI50 was 18.8 µM (inactive) in assay [13]; 20.4 µM (inactive) in assay [14]; 20.3 µM (inactive) in assay [15]; 15.3 µM (inactive) in assay [16]; 17.4 µM (inactive) in assay [17].

`CC(=O)OC1COC(n2c(N)c(C#N)c(C)c(C#N)c2=S)C(OC(C)=O)C1OC(C)=O` (centres undefined): the GI50 in assay [1] was 76.7 µM (inactive); in assay [2], > 100 µM (inactive) and 85.5 µM (inactive); in assay [3], > 100 µM (inactive); in assay [4] it was 88.1 µM (inactive); in assay [5], > 100 µM (inactive); in assay [18], > 100 µM (inactive) and 54.1 µM (inactive). The GI50 in [8], in assay [9], in assay [10], in assay [11], in [12] and in [13] was > 100 µM (inactive) each time. Further, the GI50 in [14] was > 100 µM (inactive); in assay [15] it was 66.4 µM (inactive); in assay [17] it was > 100 µM (inactive).

With `CCOc1ccc(NC(=O)C(=O)C2C(=O)Nc3ccccc3[S+]2[O-])cc1` (centres undefined), the GI50 in assay [1], in [2], in assay [3], in [4], in assay [5] and in [6] was > 100 µM (inactive) throughout. Further, the GI50 in assay [7] is 85.9 µM (inactive); in [8] it was > 100 µM (inactive); in assay [9], > 100 µM (inactive); in assay [10], > 100 µM (inactive); in assay [11], > 100 µM (inactive); in assay [12] it was > 100 µM (inactive). Besides, the GI50 in [19], in [13], in assay [14], in assay [15], in assay [16] and in assay [17] was > 100 µM (inactive) each time.

In the case of `FC1CCN(C2(c3cccs3)CCCCC2)CC1`, the GI50 in assay [1] was > 100 µM (inactive); in assay [3], 25.5 µM (inactive); in assay [4], > 100 µM (inactive); in assay [5] it was > 100 µM (inactive); in [6], > 100 µM (inactive); in assay [7] it was > 100 µM (inactive). In addition, the GI50 is > 100 µM (inactive) in assay [8]; > 100 µM (inactive) in [9]; > 100 µM (inactive) in [10]; > 100 µM (inactive) in assay [11]; > 100 µM (inactive) in assay [12]; 62.8 µM (inactive) in [19]. The GI50 was 77.1 µM (inactive) in assay [13]; > 100 µM (inactive) in [14]; > 100 µM (inactive) in [15]; > 100 µM (inactive) in assay [16]; > 100 µM (inactive) in assay [17].

As for `Cc1ccc2c(=O)c(C(=O)Nn3c(C)csc3=S)c[nH]c2n1`, the GI50 is > 100 µM (inactive) in [1]; > 100 µM (inactive) in assay [2]; > 100 µM (inactive) in [3]; > 100 µM (inactive) in assay [4]; 83 µM (inactive) in [5]; > 100 µM (inactive) in [6]. The GI50 in [7], in assay [8], in [9], in assay [10], in assay [11] and in [12] was > 100 µM (inactive) throughout. The GI50 in assay [13], in [14], in assay [15], in assay [16] and in assay [17] was > 100 µM (inactive) in each case.

In the case of `Clc1ccc(C2=CCN3CC=C(c4ccc(Cl)cc4)C23)cc1`, the GI50 in assay [2] was 7.96 µM (inactive); in assay [3], 13.6 µM (inactive); in assay [4], 13.9 µM (inactive); in [5], 24 µM (inactive); in [6], 11 µM (inactive); in assay [7], 15.3 µM (inactive). The GI50 in [18] was 6.7 µM (inactive); in assay [8] it was 12 µM (inactive); in assay [9], 10.8 µM (inactive); in assay [10], 14.2 µM (inactive); in assay [11] it was 11.6 µM (inactive); in assay [12], 11.6 µM (inactive). Moreover, the GI50 was 7.28 µM (inactive) in assay [13]; 12.4 µM (inactive) in [14]; 7.24 µM (inactive) in assay [15]; 5.98 µM (inactive) in assay [16]; 13.3 µM (inactive) in [17].

As for `Nc1nc(Cl)c(N)c(NCC2(CO)CCC(OCc3ccccc3)C2)n1` (centres undefined), the GI50 in [1] was > 100 µM (inactive); in assay [2], > 100 µM (inactive); in [3], 39.5 µM (inactive); in assay [4], 47.8 µM (inactive); in assay [5] it was 0.433 µM (active); in [6], > 100 µM (inactive). The GI50 in [7] was 0.931 µM (active); in assay [8] it was > 100 µM (inactive); in assay [9], > 100 µM (inactive); in [10] it was > 100 µM (inactive); in assay [11], > 100 µM (inactive); in [12], 61.9 µM (inactive). In addition, the GI50 in assay [19], in assay [14], in [15], in assay [16] and in [17] was > 100 µM (inactive) in each case.

For `Cc1[nH]c2c(c1Cc1ccccc1)C1=NC=C(O)NN1C=N2`, the GI50 in assay [1] is 82.2 µM (inactive); in [2], 94.2 µM (inactive); in [3], > 100 µM (inactive); in assay [4], 14.9 µM (inactive); in [5], > 100 µM (inactive); in [6], 70.1 µM (inactive). In addition, the GI50 in assay [7] is > 100 µM (inactive); in assay [8], 53.7 µM (inactive); in [9], > 100 µM (inactive); in assay [10] it was 51.4 µM (inactive); in assay [11], > 100 µM (inactive); in [12], 49 µM (inactive). In addition, the GI50 was > 100 µM (inactive) in assay [13]; > 100 µM (inactive) in assay [14]; 65.6 µM (inactive) in assay [15]; 85.7 µM (inactive) in assay [16]; 21.5 µM (inactive) in [17].

Regarding `CC(C)C1=CC(=O)[C@@](C)(C2[C@H](O)C[C@@]3(C)[C@@H]4CC=C5[C@@H](CC[C@@H](OC6OCC(O)C(O)C6OC6OC(C)C(O)C(O)C6O)C5(C)C)[C@]4(C)C(=O)C[C@]23C)O1` (some centres undefined), the GI50 in assay [1], in assay [2], in assay [3], in [4], in assay [5] and in assay [6] was > 100 µM (inactive) each time. Also, the GI50 in [7], in [8], in assay [9], in assay [10], in assay [11] and in assay [12] was > 100 µM (inactive) each time. Further, the GI50 in assay [19], in [13], in assay [14], in [15], in [16] and in assay [17] was > 100 µM (inactive) each time.

In the case of `CN(CCCNC(=O)c1n[nH]c2c1ccc1ccccc12)CCCNC(=O)c1n[nH]c2c1ccc1ccccc12`, the GI50 in assay [1] is 14.7 µM (inactive); in [2] it was 14.7 µM (inactive); in [3], 10.3 µM (inactive); in assay [4], 15 µM (inactive); in [5] it was 13.4 µM (inactive); in [6], 14.8 µM (inactive). Also, the GI50 in assay [7] was 21.4 µM (inactive); in assay [8], 17.9 µM (inactive); in assay [9], 2.14 µM (inactive); in assay [10], 16.4 µM (inactive); in [11], 10.9 µM (inactive); in [12], 15.6 µM (inactive). For the same compound, the GI50 is 14.6 µM (inactive) in [19]; 4.3 µM (inactive) in [13]; 10.9 µM (inactive) in [14]; 9.91 µM (inactive) in [15]; 12.7 µM (inactive) in assay [16]; 16.3 µM (inactive) in assay [17].

For the compound `O=C1c2cccnc2-c2nccc3ccnc1c23`, the GI50 in [1] was 1.36 µM (inactive); in assay [2] it was 1.11 µM (active); in [3], 0.853 µM (active); in assay [4] it was 0.24 µM (active); in assay [5], 1.58 µM (inactive); in [6], 1.05 µM (active). In addition, the GI50 in assay [7] is 1.58 µM (inactive); in assay [8] it was 0.281 µM (active); in [9] it was 0.2 µM (active); in assay [10] it was 0.755 µM (active); in [11], 0.461 µM (active); in [12], 1.43 µM (inactive). Also, the GI50 in assay [19] was 0.687 µM (active); in assay [13] it was 1.02 µM (active); in assay [14], 1.32 µM (inactive); in assay [15] it was 0.601 µM (active); in assay [16], 0.0865 µM (active); in assay [17], 0.474 µM (active).
